# Measured values as given in US10968199B2, “Cycloalkyl-containing apoptosis signal-regulating kinase 1 inhibitors and methods of use thereof” (ENANTA PHARMACEUTICALS, INC., priority 2018, dated 2021).
# Target: ASK1 kinase (Homo sapiens (Human), UniProt Q99683)
# Assay: HTRF KinEASE assay of ASK1 kinase inhibition
# Format: biochemical
# Details: HTRF KinEASE-STK TR-FRET; 5 nM ASK1, 1 uM STK3 peptide substrate, 100 uM ATP, 3 hours
# Experimental: The ability (IC50) of compounds to inhibit ASK1 kinase activity was determined by HTRF® KinEASE™ Assay System.
# ASK1 was purchased from Thermofisher (Catalogue #PV4011), ATP was purchased from Sigma (Catalogue #A7699), HTRF® KinEASE™ Assay System was obtained from Cisbio (Bedford, Mass.). ½ Area plate was purchased from Perkin Elmer (Catalogue # #6005560). HTRF® KinEASE™-STK is a generic method for measuring serine/threonine kinase activities using a time-resolved fluorescence resonance energy transfer (TR-FRET) immunoassay. The IC50 value for each compound was determined in the presence of compound (various concentration from 0 to 10 μM) and a fixed amount of ATP and peptide substrates. The test compound, 1 uM STK3 peptide substrate, and 5 nM of ASK1 kinase are incubated with kinase reaction buffer containing 50 mM HEPES pH 7.5, 0.01% BRIJ-35, 10 mM MgCl2, and 1 mM EGTA for 30 minutes. 100 uM ATP is added to start kinase reaction and incubated for 3 hours. The STK3-antibody labeled with Eu^3+-Cryptate and 125 nM streptavidin-XL665 are mixed in a single addition with stop reagents provided by the Cisbio kit used to stop the kinase reaction. Fluorescence is detected using an Envision Multilabeled 2014 reader from PerkinElmer. The Fluorescence is measured at 615 nm (Cryptate) and 665 nm (XL665) and a ratio of 665 nm/615 nm is calculated for each well. The resulting TR-FRET is proportional to the phosphorylation level. Staurosporine was used as the positive control. IC50 was determined by XLfit 5.3.
# By using above method, the inhibition of ASK1 was tested for the compound of formula (I). IC50 ranges are as follows: A<1 nM; 1 nM<B<10 nM; C>10 nM.
# ASK1 kinase, sequence (Q99683 whole entry): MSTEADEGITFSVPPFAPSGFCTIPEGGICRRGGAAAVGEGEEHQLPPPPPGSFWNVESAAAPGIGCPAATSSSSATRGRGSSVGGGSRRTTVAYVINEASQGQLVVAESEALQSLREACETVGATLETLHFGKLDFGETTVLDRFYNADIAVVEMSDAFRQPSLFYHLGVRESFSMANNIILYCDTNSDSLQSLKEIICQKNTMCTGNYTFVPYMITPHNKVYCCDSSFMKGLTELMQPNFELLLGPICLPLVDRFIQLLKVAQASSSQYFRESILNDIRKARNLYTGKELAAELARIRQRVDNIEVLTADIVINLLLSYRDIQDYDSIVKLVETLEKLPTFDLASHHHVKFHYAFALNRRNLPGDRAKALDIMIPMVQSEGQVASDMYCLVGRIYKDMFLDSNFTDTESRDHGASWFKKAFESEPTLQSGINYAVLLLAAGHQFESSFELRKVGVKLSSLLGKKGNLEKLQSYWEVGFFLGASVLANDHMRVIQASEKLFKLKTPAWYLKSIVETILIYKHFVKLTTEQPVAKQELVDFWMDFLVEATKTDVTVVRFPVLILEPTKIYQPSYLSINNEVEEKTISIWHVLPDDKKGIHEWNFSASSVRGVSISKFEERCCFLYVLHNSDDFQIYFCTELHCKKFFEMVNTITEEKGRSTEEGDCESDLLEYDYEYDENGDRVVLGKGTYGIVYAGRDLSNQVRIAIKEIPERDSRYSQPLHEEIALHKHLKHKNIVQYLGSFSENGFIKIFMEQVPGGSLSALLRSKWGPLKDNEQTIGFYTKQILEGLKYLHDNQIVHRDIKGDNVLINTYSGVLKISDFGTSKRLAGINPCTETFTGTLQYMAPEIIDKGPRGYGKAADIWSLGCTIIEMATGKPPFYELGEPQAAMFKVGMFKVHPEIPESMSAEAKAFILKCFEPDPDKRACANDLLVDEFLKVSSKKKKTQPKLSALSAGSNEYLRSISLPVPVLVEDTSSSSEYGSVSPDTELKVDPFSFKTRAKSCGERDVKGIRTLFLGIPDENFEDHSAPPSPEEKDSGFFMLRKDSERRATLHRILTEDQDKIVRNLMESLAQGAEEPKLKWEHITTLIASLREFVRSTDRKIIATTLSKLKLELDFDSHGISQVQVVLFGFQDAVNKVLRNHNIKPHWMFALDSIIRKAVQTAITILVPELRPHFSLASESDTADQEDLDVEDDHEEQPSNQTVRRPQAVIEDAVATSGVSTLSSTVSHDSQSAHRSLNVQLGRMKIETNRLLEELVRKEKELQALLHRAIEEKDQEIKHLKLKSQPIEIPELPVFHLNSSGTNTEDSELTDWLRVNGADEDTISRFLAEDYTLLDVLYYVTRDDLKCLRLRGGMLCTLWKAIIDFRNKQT
row,SMILES,IC50
1,Cc1cc(F)c(C(=O)Nc2cccc(-c3nncn3C(C)C)n2)cc1C1CC1NC(=O)N(C)CCC(F)(F)F (centres unmarked) [Example 13],> 10 nM
2,"Cc1cc(F)c(C(=O)Nc2cccc(-c3nncn3C(C)C)n2)cc1C1CC1C(=O)O (centres unmarked) [Example 2, 2-(4-fluoro-5-((6-(4-isopropyl-4H-1,2,4-triazol-3-yl)pyridin-2-yl)carbamoyl)-2-methylphenyl)cyclopropane-1-carboxylic acid]",> 10 nM
3,Cc1cnc(C(=O)Nc2cccc(-c3nncn3C(C)C)n2)cc1C1CC1NC(=O)OCC(F)(F)F (centres unmarked) [Example 19],> 10 nM
4,Cc1cc(F)c(C(=O)Nc2cccc(-c3nncn3[C@H](C)CO)n2)cc1C1CC1NC(=O)OCC(F)(F)F (some centres unmarked) [Example 25],> 10 nM
5,Cc1cc(F)c(C(=O)Nc2cccc(-c3nncn3C(C)C)n2)cc1C1CC1C(=O)N1CCC(F)(F)C1 (centres unmarked) [Example 12],> 10 nM
6,"Cc1cnc(C(=O)Nc2cccc(-c3nnnn3[C@H](C)CO)n2)cc1C1CC(NC(=O)OC(C)(C)C)C1 (stereo partly drawn) [Example 9, tert-butyl (R)-(3-(2-((6-(1-(1-hydroxypropan-2-yl)-1H-tetrazol-5-yl)pyridin-2-yl)carbamoyl)-5-methylpyridin-4-yl)cyclobutyl)carbamate]",> 10 nM
7,"Cc1cc(F)c(C(=O)Nc2cccc(-c3nncn3C(C)C)n2)cc1C1CC1NS(=O)(=O)N(C)C (centres unmarked) [Example 7, 5-(2-((N,N-dimethylsulfamoyl)amino)cyclopropyl)-2-fluoro-N-(6-(4-isopropyl-4H-1,2,4-triazol-3-yl)pyridin-2-yl)-4-methylbenzamide]",> 10 nM
8,"Cc1cc(F)c(C(=O)Nc2cccc(-c3nncn3C(C)C)n2)cc1C1CC1NC(=O)c1ccc(F)cc1 (centres unmarked) [Example 6, 2-fluoro-5-(2-(4-fluorobenzamido)cyclopropyl)-N-(6-(4-isopropyl-4H-1,2,4-triazol-3-yl)pyridin-2-yl)-4-methylbenzamide]",> 10 nM
9,"Cc1cc(F)c(C(=O)Nc2cccc(-c3nncn3C(C)C)n2)cc1C1CC1C(=O)NC1CC1 (centres unmarked) [Example 3, 5-(2-(cyclopropylcarbamoyl)cyclopropyl)-2-fluoro-N-(6-(4-isopropyl-4H-1,2,4-triazol-3-yl)pyridin-2-yl)-4-methylbenzamide]",> 10 nM
10,"Cc1cnc(C(=O)Nc2cccc(-c3nncn3C(C)C)n2)cc1C1CC1NC(=O)OC(C)(C)C (centres unmarked) [Example 8, tert-butyl (2-(2-((6-(4-isopropyl-4H-1,2,4-triazol-3-yl)pyridin-2-yl)carbamoyl)-5-methylpyridin-4-yl)cyclopropyl)carbamate]",> 10 nM
11,"Cc1cc(F)c(C(=O)Nc2cccc(-c3nncn3C(C)C)n2)cc1C1CC1NC(=O)N1CCC(F)(F)C1 (centres unmarked) [Example 5, 3,3-difluoro-N-(2-(4-fluoro-5-((6-(4-isopropyl-4H-1,2,4-triazol-3-yl)pyridin-2-yl)carbamoyl)-2-methylphenyl)cyclopropyl)pyrrolidine-1-carboxamide]",> 10 nM
12,Cc1cc(F)c(C(=O)Nc2cccc(-c3nncn3[C@H](C)CO)n2)cc1C1CC1NS(=O)(=O)N(C)C (some centres unmarked) [Example 28],1 to 10 nM
13,Cc1cc(F)c(C(=O)Nc2cccc(-c3nncn3[C@H](C)CO)n2)cc1C1CC1NC(=O)C(C)(C)C (some centres unmarked) [Example 29],1 to 10 nM
14,COc1cc(C)c(C2CC2NC(=O)N(C)CCC(F)(F)F)cc1C(=O)Nc1cccc(-c2nncn2C(C)C)n1 (centres unmarked) [Example 18],1 to 10 nM
15,Cc1cc(F)c(C(=O)Nc2cccc(-c3nncn3C(C)C)n2)cc1C1CC1NC(=O)C(C)(C)C (centres unmarked) [Example 14],> 10 nM
16,"Cc1cc(F)c(C(=O)Nc2cccc(-c3nncn3C(C)C)n2)cc1C1CC1NC(=O)OC(C)(C)C (centres unmarked) [Example 4, tert-butyl (2-(4-fluoro-5-((6-(4-isopropyl-4H-1,2,4-triazol-3-yl)pyridin-2-yl)carbamoyl)-2-methylphenyl)cyclopropyl)carbamate]",1 to 10 nM

# Second part, the compound after the results:
row,IC50,SMILES
1,1 to 10 nM,COc1cc(C)c(C2CC2NC(=O)c2ccc(F)cc2)cc1C(=O)Nc1cccc(-c2nncn2C(C)C)n1 (centres unmarked) [Example 22]
2,1 to 10 nM,COc1cc(C)c(C2CC2NS(=O)(=O)N(C)C)cc1C(=O)Nc1cccc(-c2nncn2C(C)C)n1 (centres unmarked) [Example 20]
3,1 to 10 nM,COc1cc(C)c(C2CC2C(=O)N2CCC(F)(F)C2)cc1C(=O)Nc1cccc(-c2nncn2C(C)C)n1 (centres unmarked) [Example 16]
4,1 to 10 nM,"CCOC(=O)C1CC1c1cc(C(=O)Nc2cccc(-c3nncn3C(C)C)n2)c(F)cc1C (centres unmarked) [Example 1, ethyl 2-(4-fluoro-5-((6-(4-isopropyl-4H-1,2,4-triazol-3-yl)pyridin-2-yl)carbamoyl)-2-methylphenyl)cyclopropane-1-carboxylate]"
5,1 to 10 nM,COc1cc(C)c(C2CC2NC(=O)OCC(F)(F)F)cc1C(=O)Nc1cccc(-c2nncn2C(C)C)n1 (centres unmarked) [Example 17]
6,1 to 10 nM,COc1cc(C)c(C2CC2NC(=O)C(C)(C)C)cc1C(=O)Nc1cccc(-c2nncn2C(C)C)n1 (centres unmarked) [Example 23]
7,1 to 10 nM,Cc1cc(F)c(C(=O)Nc2cccc(-c3nncn3[C@H](C)CO)n2)cc1C1CC1NS(=O)(=O)CCC(F)(F)F (some centres unmarked) [Example 27]
8,1 to 10 nM,Cc1cc(F)c(C(=O)Nc2cccc(-c3nncn3[C@H](C)CO)n2)cc1C1CC1NC(=O)N(C)CCC(F)(F)F (some centres unmarked) [Example 26]
9,1 to 10 nM,Cc1cc(F)c(C(=O)Nc2cccc(-c3nncn3C(C)C)n2)cc1C1CC1NS(=O)(=O)C1CC1 (centres unmarked) [Example 11]
10,1 to 10 nM,Cc1cc(F)c(C(=O)Nc2cccc(-c3nncn3[C@H](C)CO)n2)cc1C1CC1C(=O)N1CCC(F)(F)C1 (some centres unmarked) [Example 24]
11,1 to 10 nM,CCOC(=O)C1CC1c1cc(C(=O)Nc2cccc(-c3nncn3C(C)C)n2)ncc1C (centres unmarked) [Example 15]
12,1 to 10 nM,Cc1cc(F)c(C(=O)Nc2cccc(-c3nncn3C(C)C)n2)cc1C1CC1NC(=O)OCC(F)(F)F (centres unmarked) [Example 10]
13,1 to 10 nM,COc1cc(C)c(C2CC2NS(=O)(=O)CCC(F)(F)F)cc1C(=O)Nc1cccc(-c2nncn2C(C)C)n1 (centres unmarked) [Example 21]
